Laboratory results: patent publication US20160009693A1, “HERBICIDAL COMPOUNDS” (SYNGENTA LIMITED, priority 2013, published 2016)

system: Setaria faberi (SETFA); assay: Herbicidal glasshouse test, post-emergence, SETFA; type: in vivo; settings: applied at 1000 g/h, evaluated after 13 days
Procedure: (§1) Seeds of a variety of test species are sown in standard soil in pots (Alopecurus myosuroides (ALOMY), Setaria faberi (SETFA), Echinochloa crus-galli (ECHCG), Solanum nigrum (SOLNI), Amaranthus retoflexus (AMARE), Ipomoea hederacea (IPOHE)). After cultivation for one day (pre-emergence) or after 8 days cultivation (post-emergence) under controlled conditions in a glasshouse (at 24/16° C., day/night; 14 hours light; 65% humidity), the plants are sprayed with an aqueous spray solution derived from the formulation of the technical active ingredient in acetone / water (50:50) solution containing 0.5% Tween 20 (polyoxyethelyene sorbitan monolaurate, CAS RN 9005-64-5). […] The test plants are then grown in a glasshouse under controlled conditions in a glasshouse (at 24/16° C., day/night; 14 hours light; 65% humidity) and watered twice daily. After 13 days for pre and post-emergence, the test is evaluated for the percentage damage caused to the plant. The biological activities are shown in the following table on a five point scale (5=80-100%; 4=60-79%; 3=40-59%; 2=20-39%; 1=0-19%).

Structure (SMILES) | POST Application SETFA, percentage damage (five point scale)
CCCCn1c(=O)c(C(=O)Nc2nnnn2C)nn(C)c1=O [Compound 1.001] | 5 (5=80-100%)
Cn1nnnc1NC(=O)c1nn(C)c(=O)n(-c2ccccc2)c1=O [Compound 1.002] | 5 (5=80-100%)
Cn1nnnc1NC(=O)c1nn(C)c(=O)n(-c2cccc(F)c2F)c1=O [Compound 1.003] | 5 (5=80-100%)
C=CCn1c(=O)c(C(=O)Nc2nnnn2C)nn(C)c1=O [Compound 1.004] | 4 (4=60-79%)
CC(C)Cn1c(=O)c(C(=O)Nc2nnnn2C)nn(C)c1=O [Compound 1.005] | 5 (5=80-100%)

system: Amaranthus retoflexus (AMARE); assay: Herbicidal glasshouse test, post-emergence, AMARE; type: in vivo; settings: applied at 1000 g/h, evaluated after 13 days
Procedure: as §1

Structure (SMILES) | POST Application AMARE, percentage damage (five point scale)
CCCCn1c(=O)c(C(=O)Nc2nnnn2C)nn(C)c1=O [Compound 1.001] | 5 (5=80-100%)
Cn1nnnc1NC(=O)c1nn(C)c(=O)n(-c2ccccc2)c1=O [Compound 1.002] | 5 (5=80-100%)
Cn1nnnc1NC(=O)c1nn(C)c(=O)n(-c2cccc(F)c2F)c1=O [Compound 1.003] | 5 (5=80-100%)
C=CCn1c(=O)c(C(=O)Nc2nnnn2C)nn(C)c1=O [Compound 1.004] | 5 (5=80-100%)
CC(C)Cn1c(=O)c(C(=O)Nc2nnnn2C)nn(C)c1=O [Compound 1.005] | 5 (5=80-100%)

system: Echinochloa crus-galli (ECHCG); assay: Herbicidal glasshouse test, pre-emergence, ECHCG; type: in vivo; settings: applied at 1000 g/h, evaluated after 13 days
Procedure: as §1

Structure (SMILES) | PRE Application ECHCG, percentage damage (five point scale)
CCCCn1c(=O)c(C(=O)Nc2nnnn2C)nn(C)c1=O [Compound 1.001] | 5 (5=80-100%)
Cn1nnnc1NC(=O)c1nn(C)c(=O)n(-c2ccccc2)c1=O [Compound 1.002] | 5 (5=80-100%)
Cn1nnnc1NC(=O)c1nn(C)c(=O)n(-c2cccc(F)c2F)c1=O [Compound 1.003] | 5 (5=80-100%)
C=CCn1c(=O)c(C(=O)Nc2nnnn2C)nn(C)c1=O [Compound 1.004] | 4 (4=60-79%)
CC(C)Cn1c(=O)c(C(=O)Nc2nnnn2C)nn(C)c1=O [Compound 1.005] | 5 (5=80-100%)

system: Solanum nigrum (SOLNI); assay: Herbicidal glasshouse test, pre-emergence, SOLNI; type: in vivo; settings: applied at 1000 g/h, evaluated after 13 days
Procedure: as §1

Structure (SMILES) | PRE Application SOLNI, percentage damage (five point scale)
CCCCn1c(=O)c(C(=O)Nc2nnnn2C)nn(C)c1=O [Compound 1.001] | 5 (5=80-100%)
Cn1nnnc1NC(=O)c1nn(C)c(=O)n(-c2ccccc2)c1=O [Compound 1.002] | 5 (5=80-100%)
Cn1nnnc1NC(=O)c1nn(C)c(=O)n(-c2cccc(F)c2F)c1=O [Compound 1.003] | 5 (5=80-100%)
C=CCn1c(=O)c(C(=O)Nc2nnnn2C)nn(C)c1=O [Compound 1.004] | 5 (5=80-100%)
CC(C)Cn1c(=O)c(C(=O)Nc2nnnn2C)nn(C)c1=O [Compound 1.005] | 5 (5=80-100%)

system: Setaria faberi (SETFA); assay: Herbicidal glasshouse test, pre-emergence, SETFA; type: in vivo; settings: applied at 1000 g/h, evaluated after 13 days
Procedure: as §1

Structure (SMILES) | PRE Application SETFA, percentage damage (five point scale)
CCCCn1c(=O)c(C(=O)Nc2nnnn2C)nn(C)c1=O [Compound 1.001] | 5 (5=80-100%)
Cn1nnnc1NC(=O)c1nn(C)c(=O)n(-c2ccccc2)c1=O [Compound 1.002] | 5 (5=80-100%)
Cn1nnnc1NC(=O)c1nn(C)c(=O)n(-c2cccc(F)c2F)c1=O [Compound 1.003] | 5 (5=80-100%)
C=CCn1c(=O)c(C(=O)Nc2nnnn2C)nn(C)c1=O [Compound 1.004] | 2 (2=20-39%)
CC(C)Cn1c(=O)c(C(=O)Nc2nnnn2C)nn(C)c1=O [Compound 1.005] | 5 (5=80-100%)

system: Alopecurus myosuroides (ALOMY); assay: Herbicidal glasshouse test, pre-emergence, ALOMY; type: in vivo; settings: applied at 1000 g/h, evaluated after 13 days
Procedure: as §1

Structure (SMILES) | PRE Application ALOMY, percentage damage (five point scale)
CCCCn1c(=O)c(C(=O)Nc2nnnn2C)nn(C)c1=O [Compound 1.001] | 5 (5=80-100%)
Cn1nnnc1NC(=O)c1nn(C)c(=O)n(-c2ccccc2)c1=O [Compound 1.002] | 5 (5=80-100%)
Cn1nnnc1NC(=O)c1nn(C)c(=O)n(-c2cccc(F)c2F)c1=O [Compound 1.003] | 5 (5=80-100%)
C=CCn1c(=O)c(C(=O)Nc2nnnn2C)nn(C)c1=O [Compound 1.004] | 3 (3=40-59%)
CC(C)Cn1c(=O)c(C(=O)Nc2nnnn2C)nn(C)c1=O [Compound 1.005] | 5 (5=80-100%)

system: Alopecurus myosuroides (ALOMY); assay: Herbicidal glasshouse test, post-emergence, ALOMY; type: in vivo; settings: applied at 1000 g/h, evaluated after 13 days
Procedure: as §1

Structure (SMILES) | POST Application ALOMY, percentage damage (five point scale)
CCCCn1c(=O)c(C(=O)Nc2nnnn2C)nn(C)c1=O [Compound 1.001] | 5 (5=80-100%)
Cn1nnnc1NC(=O)c1nn(C)c(=O)n(-c2ccccc2)c1=O [Compound 1.002] | 5 (5=80-100%)
Cn1nnnc1NC(=O)c1nn(C)c(=O)n(-c2cccc(F)c2F)c1=O [Compound 1.003] | 5 (5=80-100%)
C=CCn1c(=O)c(C(=O)Nc2nnnn2C)nn(C)c1=O [Compound 1.004] | 4 (4=60-79%)
CC(C)Cn1c(=O)c(C(=O)Nc2nnnn2C)nn(C)c1=O [Compound 1.005] | 5 (5=80-100%)

system: Ipomoea hederacea (IPOHE); assay: Herbicidal glasshouse test, post-emergence, IPOHE; type: in vivo; settings: applied at 1000 g/h, evaluated after 13 days
Procedure: as §1

Structure (SMILES) | POST Application IPOHE, percentage damage (five point scale)
CCCCn1c(=O)c(C(=O)Nc2nnnn2C)nn(C)c1=O [Compound 1.001] | 5 (5=80-100%)
Cn1nnnc1NC(=O)c1nn(C)c(=O)n(-c2ccccc2)c1=O [Compound 1.002] | 5 (5=80-100%)
Cn1nnnc1NC(=O)c1nn(C)c(=O)n(-c2cccc(F)c2F)c1=O [Compound 1.003] | 5 (5=80-100%)
C=CCn1c(=O)c(C(=O)Nc2nnnn2C)nn(C)c1=O [Compound 1.004] | 5 (5=80-100%)
CC(C)Cn1c(=O)c(C(=O)Nc2nnnn2C)nn(C)c1=O [Compound 1.005] | 5 (5=80-100%)

system: Solanum nigrum (SOLNI); assay: Herbicidal glasshouse test, post-emergence, SOLNI; type: in vivo; settings: applied at 1000 g/h, evaluated after 13 days
Procedure: as §1

Structure (SMILES) | POST Application SOLNI, percentage damage (five point scale)
CCCCn1c(=O)c(C(=O)Nc2nnnn2C)nn(C)c1=O [Compound 1.001] | 5 (5=80-100%)
Cn1nnnc1NC(=O)c1nn(C)c(=O)n(-c2ccccc2)c1=O [Compound 1.002] | 5 (5=80-100%)
Cn1nnnc1NC(=O)c1nn(C)c(=O)n(-c2cccc(F)c2F)c1=O [Compound 1.003] | 5 (5=80-100%)
C=CCn1c(=O)c(C(=O)Nc2nnnn2C)nn(C)c1=O [Compound 1.004] | 5 (5=80-100%)
CC(C)Cn1c(=O)c(C(=O)Nc2nnnn2C)nn(C)c1=O [Compound 1.005] | 5 (5=80-100%)

system: Amaranthus retoflexus (AMARE); assay: Herbicidal glasshouse test, pre-emergence, AMARE; type: in vivo; settings: applied at 1000 g/h, evaluated after 13 days
Procedure: as §1

Structure (SMILES) | PRE Application AMARE, percentage damage (five point scale)
CCCCn1c(=O)c(C(=O)Nc2nnnn2C)nn(C)c1=O [Compound 1.001] | 5 (5=80-100%)
Cn1nnnc1NC(=O)c1nn(C)c(=O)n(-c2ccccc2)c1=O [Compound 1.002] | 5 (5=80-100%)
Cn1nnnc1NC(=O)c1nn(C)c(=O)n(-c2cccc(F)c2F)c1=O [Compound 1.003] | 5 (5=80-100%)
C=CCn1c(=O)c(C(=O)Nc2nnnn2C)nn(C)c1=O [Compound 1.004] | 5 (5=80-100%)
CC(C)Cn1c(=O)c(C(=O)Nc2nnnn2C)nn(C)c1=O [Compound 1.005] | 5 (5=80-100%)

system: Ipomoea hederacea (IPOHE); assay: Herbicidal glasshouse test, pre-emergence, IPOHE; type: in vivo; settings: applied at 1000 g/h, evaluated after 13 days
Procedure: as §1

Structure (SMILES) | PRE Application IPOHE, percentage damage (five point scale)
CCCCn1c(=O)c(C(=O)Nc2nnnn2C)nn(C)c1=O [Compound 1.001] | 5 (5=80-100%)
Cn1nnnc1NC(=O)c1nn(C)c(=O)n(-c2ccccc2)c1=O [Compound 1.002] | 5 (5=80-100%)
Cn1nnnc1NC(=O)c1nn(C)c(=O)n(-c2cccc(F)c2F)c1=O [Compound 1.003] | 5 (5=80-100%)
C=CCn1c(=O)c(C(=O)Nc2nnnn2C)nn(C)c1=O [Compound 1.004] | 4 (4=60-79%)
CC(C)Cn1c(=O)c(C(=O)Nc2nnnn2C)nn(C)c1=O [Compound 1.005] | 4 (4=60-79%)

system: Echinochloa crus-galli (ECHCG); assay: Herbicidal glasshouse test, post-emergence, ECHCG; type: in vivo; settings: applied at 1000 g/h, evaluated after 13 days
Procedure: as §1

Structure (SMILES) | POST Application ECHCG, percentage damage (five point scale)
CCCCn1c(=O)c(C(=O)Nc2nnnn2C)nn(C)c1=O [Compound 1.001] | 5 (5=80-100%)
Cn1nnnc1NC(=O)c1nn(C)c(=O)n(-c2ccccc2)c1=O [Compound 1.002] | 5 (5=80-100%)
Cn1nnnc1NC(=O)c1nn(C)c(=O)n(-c2cccc(F)c2F)c1=O [Compound 1.003] | 5 (5=80-100%)
C=CCn1c(=O)c(C(=O)Nc2nnnn2C)nn(C)c1=O [Compound 1.004] | 4 (4=60-79%)
CC(C)Cn1c(=O)c(C(=O)Nc2nnnn2C)nn(C)c1=O [Compound 1.005] | 5 (5=80-100%)
